Patent US9102675B2, “3-Cyanoaryl-1H-pyrrolo[2,3-B] pyridine derivatives” (MERCK PATENT GMBH, priority 2011, dated 2015)

Tested on: TBK1 + IKKε
Test: TBK1 + IKKε cell assay: dose response inhibition of phospho-IRF3 @ Ser 386 in MDA-MB-468 cells after poly(I:C) stimulation
Assay type: cell-based
Settings: Homo sapiens, MDA-MB-468, MDA-MB-468 cells, nuclear phospho-IRF3 Ser386, read-out: TBK1 + IKKε cell assay IC50
Excerpt: Dose response inhibition of phospho-IRF3 @ Ser 386 cell/MDAMB468/INH/PHOS/IMAG/pIRF3
Although TBK1 and IKKε are mainly known as key substances in the innate immune response, recent findings have indicated a role for TBK1 and IKKε in Ras-induced oncogenic transformation. TBK1 was identified as RaIB effector in the Ras-like (RaI)-guanine nucleotide exchange factor (GEF) pathway that is required for Ras-induced transformation. TBK1 directly activates IRF3 which, on phosphorylation, homodimerises and translocates to the nucleus, where it activates processes associated with inflammation, immune regulation, cell survival and proliferation.
This assay has been developed in order to assess the efficacy/potency of TBK1/IKKε inhibitor compounds based on the immunocytochemical detection of nucleus-localised phospho-IRF3, a target directly downstream of TBK1. Treatment with polyinosine-polycytidylic acid (poly(I:C), a synthetic analogue of double-stranded RNA (dsRNA), a molecular pattern associated with viral infection and recognised by Toll-like receptor 3 (TLR3) is used to induce TBK1/IKKε activity and IRF3 phosphorylation at Ser386.
Day 1: MDA-MB-468 cells are detached using HyQ-Tase, counted and sown into a 384-well plate with TC surface and clear bottom in a density of 10,000 cells per well in a total volume of 35 μl of complete medium. Alternatively, the cells are sown directly from frozen glass vials.
Day 2: The cells are pre-treated with inhibitor compounds for 1 h prior to poly(I:C) stimulation. After incubation for 2 h with poly(I:C), the cells are fixed in (para)formaldehyde (PFA) and permeabilised using methanol (MeOH). The cells are then blocked and incubated with an anti-pIRF3 antibody at 4° C. overnight.
Day 3: The primary antibody is washed off, an AlexaFluor488-conjugated secondary antibody is added, the cells are contrast-stained with propidium iodide, followed by image acquisition on an IMX ultra-high content reader.
Plating medium=culture medium: • RPMI 1640, Invitrogen #31870 • 10% of FCS, Invitrogen #10270-106 • 2 mM Glutamax, Invitrogen #35050-038 • 1 mM sodium pyruvate, Invitrogen #11360 • 1% of Pen/Strep • 37° C., 5% of CO2
Plates: 384-well bottom cell culture plates with black/clear bottom, Falcon #35 3962 or Greiner #781090
Subcultivation: HyQ-Tase, Thermo Scientific (HyClone) # SV30030.01
Poly(I:C) (LMW), Invitrogen # tlrl-picw (prepare 20 mg/ml stock solution in sterile PBS, denature 30 min 55° C. in a water bath, slowly cool to RT, store at −20° C. in aliquots)
a 10-point dose-response curve with MSC2119074A-4=BX-795 is included in each experiment
Formaldehyde (methanol-free, 16%, ultrapure EM grade), Polysciences #18814 (storage RT), final conc.: 4%
Goat serum, PAA # B15-035 (storage 4° C., long term −20° C.), final conc.: 10%
BSA (IgG- and protease-free, 30%), US-Biological # A1317 (storage 4° C., long term −20° C.), final conc.: 2%
Tween 20 detergent, Calbiochem #655204 (storage RT), (prepare 10% stock solution in water; final conc.: 0.1%)
Anti-pIRF-3 rabbit mAb, Epitomics #2526-B (storage −20° C.), final conc.: 1:2000 in PBS/2% of BSA
Alexa Fluor goat-anti-rabbit-488, Invitrogen # A11034 or # A11008 (storage 4° C., dark), final conc.: 1:2000 in PBS/2% of BSA/0.1% of Tween
Propidium iodide (PI), Fluka #81845, 1 mg/ml in H2O (storage 4° C., dark), final conc.: 0.2 μg/ml
(1) Sow 10,000 cells/well/35μof complete RPMI +10% FCS into 384-well bottom cell culture plates with black / clear bottom,
(2) Incubate for 2 h at room temperature on the bench, followed by further incubation for 22 h at 37° C., 5% of CO2 and 90% RH. […]

| SMILES | IC50 [nM] |
| --- | --- |
| CC1(COc2ccc(-c3c[nH]c4ncc(-c5cn[nH]c5)cc34)cc2C#N)COC1 [Compound A36, 2-(3-methyloxetan-3-ylmethoxy)-5-[5-(1H-pyrazol-4-yl)-1H-pyrrolo[2,3-b]pyridin-3-yl]benzonitrile] | 3000 to 50000 |
| N#Cc1cc(-c2c[nH]c3ncc(-c4cnn(C5COC5)c4)cc23)cnc1OC1CCOCC1 [Compound A37, 5-[5-(1-Oxetan-3-yl-1H-pyrazol-4-yl)-1H-pyrrolo-[2,3-b]pyridin-3-yl]-2-(tetrahydropyran-4-yloxy)-nicotinonitrile] | 3000 to 50000 |
| COCCn1cc(-c2cnc3[nH]cc(-c4cnc(OC5CCOCC5)c(C#N)c4)c3c2)cn1 [Compound A38, 5-{5-[1-(2-Methoxyethyl)-1H-pyrazol-4-yl]-1H-pyrrolo-[2,3-b]pyridin-3-yl}-2-(tetrahydropyran-4-yloxy)-nicotinonitrile] | 300 to 3000 |
